{"source": "patent US10253085B2", "about": "“CD31 peptides for the treatment of thrombotic or autoimmune disorders” (INSERM (INSTITUT NATIONAL DE LA SANTE ET DE LA RECHERCHE …, priority 2008, dated 2019)", "key": {"[1]": {"test_system": "BALB/c mice primed with TNCB", "test": "Delayed type hypersensitivity (DTH) suppression model", "type": "in vivo, mouse", "protocol": "Delayed type hypersensitivity (DTH) suppression was evaluated as described in the “Current Protocols in Immunology (2001) 4.0.1-4.0.2 Unit 4.2”. Briefly, TNCB (2-chloro-1,3,5-trinitrobenzene, Fluka #79874) was dissolved in acetone/olive oil (1:1 v/v) at a concentration of 10 mg/ml. BALB/c mice (n=6/group) were primed by painting the shaved regions of the abdomen a with a total 0.2 ml of the preparation (n=6/group). The experiment included 3 groups for peptide 551-574 (10, 50, 100 μM) and 1 group treated with scramble peptide at 100 μM). Five days after priming, 10 μl of the TNCB-solvent mixture was painted on the right pinna, 30 minutes after subcutaneous (interscapolar) administration of the peptide 551-574 or the scramble peptide. Ear thickness increases were calculated by subtracting the thickness of the right and the left pinna of each mouse (right-left/left×100), measured at 24 h with a dial caliper (“Pocotest”, Kroeplin Längenmesstechnick). The measure was performed 5 times on each ear and averaged for further analysis. The immunosuppressive effect of the peptide was calculated as % suppression=(1−ΔTE/ΔTS)×100, where ΔT=(ear thickness 24 hr after elicitation)−(baseline ear thickness), […]. Data are expressed as mean±SEM."}, "[2]": {"test_system": "spleen cells from C57Bl/6 (CD31^+/+) mice", "test": "Proliferation in response to TCR stimulation, CD31+/+ spleen cells", "type": "cell-based, mouse", "details": "peptide 25, 50, 100 μM, scramble peptide 100 μM", "protocol": "(§1) CD8^+ T cell-mediated cytolytic activity against allogeneic mouse aortic smooth muscle cells and measurement of macrophage gelatinase (MMP-2/9) activity were performed as previously described for human cells in Caligiuri et al. (2006 Arterioscler Thromb Vasc Biol 26:618-623) using kits and reagents from Invitrogen. Briefly, primary cultures of FVB/N mouse aorta smooth muscle cells were labelled with the lipophylic tracer DIO (green) and co-cultured for 3 hours with CD8+ T cell-enriched spleen cells from C57Bl/6 mice (n=3 scramble peptide and n=3 peptide 551-574, 50 μM). Cytolysis was evaluated by intracellular accumulation of propidium iodide (PI). Cells were analysed by flow cytometry and the % of cytolysis was calculated by expressing the number of dead (PI+) cells among the target (DIO+) cells. Intracellular MMP-2/9 (gelatinase) activity was measured by flow cytometry in 7-day bone-marrow derived macrophages from C57Bl/6 mice (n=3 scramble peptide and n=3 peptide 551-574, 50 μM) three hours after the incorporation of OregonGreen® gelatine (MFI). T-cell proliferation was performed using either human peripheral blood mononuclear cells of spleen cells from C57Bl/6 (CD31^+/+) and CD31^−/− mice (Charles River France) as previously described (Caligiuri et al. 2005 Arterioscler Thromb Vasc Biol 25:1659-1664). Briefly, cells were plated in triplicates at 0.2×10^6 cells/well in a U bottom 96-well plate in complete medium (RPMI 1640, 1% pyruvate, 1% glutamine, 1% penicillin-streptomicyne-fungizone, 10% decomplemented fetal calf serum, all from Invitrogen) containing 1 μg/ml anti-mouse CD3/CD28 or 5 μg/ml anti-human CD3 antibodies (BD) as appropriate. CD31 (551-574) and scramble peptide at 25, 50 and 100 μM final concentration were deposited in the wells just before cell plating. Plated cells were cultured for 72 hours in 5% CO2 at 37° C. (^3H) thymidine (0.5 μCi/well) was added for the last 16 hours and proliferation evaluated using a Tomtec harvester and analysis on a Wallac micro beta counter. Data are expressed as mean±SEM of cpm in triplicates."}, "[3]": {"test_system": "spleen cells from CD31^−/− mice", "test": "Proliferation in response to TCR stimulation, CD31-/- spleen cells", "type": "cell-based, mouse", "protocol": "as §1"}, "[4]": {"test_system": "CD4+ cells from C57Bl6 mice", "test": "CD4+ T cell activation, early activation marker CD69 by flow cytometry", "type": "cell-based, mouse", "details": "18 hours culture", "protocol": "Alternatively, the T-cell proliferation assay may comprise comparing expression levels of the early activation marker CD69 in T-cells cultured either in the presence or in the absence of the compound to be tested. This assay may for example be performed as follows: • providing purified CD4+ cells (e.g. purified from C57B16 mice); • stimulating said CD4+ cells by addition of anti-CD3 purified antibodies and bone marrow derived dendritic cells; • culturing the cells for about 18 hours; and • analyzing said cells for the expression of the early activation marker CD69, e.g. by flow cytometry; and • comparing CD69 expression in the presence of the compound to be tested.\nThe immunosuppressive properties of PepReg (10aa) vs the 23 aa parent peptide were evaluated in vitro. Negatively purified CD4+ cells from C57Bl6 mice were stimulated by soluble anti-CD3 purified antibodies and bone marrow derived dendritic cells. Cells from triplicate wells were analyzed for the expression of the early activation marker CD69 after 18 hours culture in complete RPMI medium supplemented with 10% fetal calf serum."}, "[5]": {"test_system": "MMP-2/9 (gelatinase) activity in bone-marrow derived macrophages", "test": "Macrophage gelatinase (MMP-2/9) activity", "type": "cell-based, mouse", "details": "peptide 50 μM", "protocol": "CD8^+ T cell-mediated cytolytic activity against allogeneic mouse aortic smooth muscle cells and measurement of macrophage gelatinase (MMP-2/9) activity were performed as previously described for human cells in Caligiuri et al. (2006 Arterioscler Thromb Vasc Biol 26:618-623) using kits and reagents from Invitrogen. Briefly, primary cultures of FVB/N mouse aorta smooth muscle cells were labelled with the lipophylic tracer DIO (green) and co-cultured for 3 hours with CD8+ T cell-enriched spleen cells from C57Bl/6 mice (n=3 scramble peptide and n=3 peptide 551-574, 50 μM). Cytolysis was evaluated by intracellular accumulation of propidium iodide (PI). Cells were analysed by flow cytometry and the % of cytolysis was calculated by expressing the number of dead (PI+) cells among the target (DIO+) cells. Intracellular MMP-2/9 (gelatinase) activity was measured by flow cytometry in 7-day bone-marrow derived macrophages from C57Bl/6 mice (n=3 scramble peptide and n=3 peptide 551-574, 50 μM) three hours after the incorporation of OregonGreen® gelatine (MFI). […] (^3H) thymidine (0.5 μCi/well) was added for the last 16 hours and proliferation evaluated using a Tomtec harvester and analysis on a Wallac micro beta counter. Data are expressed as mean±SEM of cpm in triplicates."}, "[6]": {"test_system": "Spleen cells from C57Bl/6 mice", "test": "Calcium mobilisation assay in Fluo-3AM-loaded spleen cells", "type": "cell-based, mouse", "details": "anti-CD3/CD28, peptide 100 μM; compared with anti-CD31 antibody cross-linking", "protocol": "Spleen cells from C57Bl/6 mice were prepared as described in Caligiuri et al. (2005 Arterioscler Thromb Vasc Biol 25:1659-1664). Cells were incubated with Fluo-3AM (Invitrogen, # F1242) as per the instructions of the manufacturer. Fluorescence of calcium-bound tracer was measured in the FITC channel on an LSRII® cytometer (BD Biosciences) prior to and during 60 seconds following the addition of hamster anti-mouse CD3/CD28 monoclonal antibodies (40 μg/ml each) and rat/hamster compBead® (1:50) either alone or in the presence of rat anti-mouse CD31 antibody (clone 390, 10 μg/ml) or in the presence of CD31 peptide 551-574 (100 μM). Negative controls included rat IgG isotype control and scramble peptide. Antibodies and compBeads® were from BD Biosciences."}}, "note": "Residues, ends and D or L forms follow the SMILES beside them.", "data": [{"smiles": "CSCC[C@H](NC(=O)[C@H](CO)NC(=O)[C@@H](N)CO)C(=O)N[C@@H](CCCNC(=N)N)C(=O)N[C@H](C(=O)N[C@@H](CO)C(=O)N1CCC[C@H]1C(=O)N[C@@H](CCCNC(=N)N)C(=O)N[C@@H](CO)C(=O)N[C@@H](CO)C(=O)N[C@H](C(=O)N[C@@H](CC(C)C)C(=O)N[C@@H](C)C(=O)N[C@H](C(=O)N[C@@H](CCCNC(=N)N)C(=O)N[C@H](C(=O)N[C@@H](Cc1ccccc1)C(=O)N[C@@H](CC(C)C)C(=O)N[C@@H](C)C(=O)N1CCC[C@H]1C(=O)N[C@@H](Cc1c[nH]c2ccccc12)C(=O)N[C@@H](CCCCN)C(=O)N[C@@H](CCCCN)C(=O)O)C(C)C)C(C)C)[C@@H](C)O)[C@@H](C)O", "note": "[peptide 551-574] (H-SSMRTSPRSSTLAVRVFLAPWKK-OH)", "values": [{"measurement": "immunosuppression in DTH model", "setting": "[1]; single subcutaneous administration of 50 μM", "result": "Effective immunosuppression"}, {"measurement": "suppression of distal recall of a hapten-elicited specific immune response (ear thickness)", "setting": "[1]; single subcutaneous administration, peptide 10, 50, 100 μM, scramble 100 μM", "result": "suppressed in a dose-dependent manner"}, {"measurement": "proliferation of CD31+/+ spleen cells in response to TCR stimulation", "setting": "[2]", "result": "inhibits in a dose-dependent manner"}, {"measurement": "proliferation of CD31+/+ spleen cells in response to TCR stimulation", "setting": "[2]; listed as mouse CD31 peptide 551-574", "result": "dose-dependent inhibition"}, {"measurement": "proliferation of CD31-/- spleen cells", "setting": "[3]; highest dose, 100 μM", "result": "effect at 100 μM dose also on cells lacking CD31"}, {"measurement": "proliferation of CD31-/- spleen cells", "setting": "[3]; highest dose, 100 μM, listed as mouse CD31 peptide 551-574", "result": "only the highest dose of the peptide affect proliferation"}, {"measurement": "proliferation of CD31-/- spleen cells", "setting": "[3]; low dose of the peptide", "result": "no effect"}, {"measurement": "dose at which suppression of CD69 expression was observed", "setting": "[4]", "result": 100, "unit": "µg/mL"}, {"measurement": "activity of matrix degrading enzymes (MMP-2/9) in bone-marrow derived macrophages", "setting": "[5]", "result": "inhibited"}, {"measurement": "inhibition of TCR-induced calcium mobilization", "setting": "[6]", "result": "as an efficient immunoregulatory strategy as it is the co-ligation of CD3 and CD28 with the distal portion of CD31"}]}]}
